pEC50, pIC50: −log10 of the molar value. Active and inactive are the calls of the source.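 How the source made its calls: active means compounds giving half or more protection of infected cells from virus-caused growth loss, again on retest; inactive means the rest.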 Where a SMILES comes first, the peptide text is derived from it.
Test system: CEM cells HIV-1 protection, formazan growth assay
Assay: NCI AIDS Antiviral Assay
Conditions: for pIC50: measured here: growth of uninfected CEM cells
In short: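 Human CEM cells, uninfected and HIV-1-infected, exposed to five drug concentrations; growth measured by soluble formazan assay and scored as percent protection from infection, with protecting compounds retested.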

SMILES: CCOC(=O)c1c[nH]c2cc3c(cc2c1=O)CCS3
- pEC50: < 3.70
- pIC50: 3.94

SMILES: CC(C)(C)C1CCC(=O)C(C(O)CC2CC(=O)N(c3ccccc3)C(=O)C2)C1 (centres undefined)
- pEC50: < 3.70
- pIC50: < 3.70

SMILES: COc1ccc2cc1Oc1ccc(cc1)CC1c3cc(c(OC)cc3CCN1C)Oc1c3c(cc4c1C(C2)N(C)CC4)OCO3 (centres undefined)
- outcome: inactive

SMILES: O=C1O[C@H]2CCC3=CC[C@@H](c4ccccc4)C=C1[C@H]32
- outcome: inactive

SMILES: CC1CN(C=O)CC(C)N1CCN1C(C)CN(C=O)CC1C (centres undefined)
- pEC50: < 3.54
- pIC50: < 3.54

SMILES: O=C1CC2(C(=O)O1)C1C(=O)OC(=O)C1C1C=CC=NN12 (centres undefined)
- pEC50: < 3.70
- pIC50: < 3.70

SMILES: COc1cccc(/S(C)=N/S(=O)(=O)c2ccc(C)cc2)c1 (centres undefined)
- pEC50: < 3.11
- pIC50: 3.67

SMILES: O=[N+]([O-])c1cc(Cl)ccc1OCc1ccccc1
- outcome: inactive

SMILES: Cc1c(Cl)cccc1NC(=O)C(=O)C1C(=O)NC(=O)NC1=O
- pEC50: < 3.40
- pIC50: < 3.40

SMILES: O=C(/C=C/c1ccc(Br)cc1)c1ccccc1
- pEC50: < 4.74
- pIC50: 5.02

SMILES: NNC(=O)c1ccc(OCc2nc3ccccc3[nH]2)cc1
- pEC50: < 3.70
- pIC50: 4.17

SMILES: COc1ccc2[nH]c(C(=O)N3CC(CCl)c4ccc(N)cc43)cc2c1 (centres undefined)
- pEC50: < 5.70
- pIC50: 6.41

SMILES: CC(NC(=O)C(OC(=O)C(C)NC(=O)OC(C)(C)C)C(C)C)C(=O)OC(C(=O)O)C(C)C (centres undefined)
- pEC50: < 3.70
- pIC50: < 3.70

SMILES: OCC(Oc1ccccc1)C(O)C(O)C(CO)Oc1ccccc1 (centres undefined)
- pEC50: < 3.70
- pIC50: < 3.70

SMILES: Cn1c(=O)[nH]c2[nH]c3ccccc3c2c1=O
- pEC50: < 3.70
- pIC50: < 3.70

SMILES: COc1ccc(NC(=O)CCc2cc(C(C)(C)C)n[nH]2)cc1
- pEC50: < 3.08
- pIC50: < 3.08

SMILES: Cc1ccc(NC(=O)CC/C(CC(=O)C(C)(C)C)=N/NC(=O)c2cc3ccccc3cc2O)cc1C
- pEC50: < 4.69
- pIC50: < 4.69

SMILES: N#Cc1ccc(/C=C2\CCc3ccccc3C2=O)cc1
- pEC50: < 4.70
- pIC50: < 4.70

SMILES: CCSCCCCCCCCCCC(=O)OCC1OC(n2cc(C)c(=O)[nH]c2=O)CC1N=[N+]=[N-] (centres undefined)
- pEC50: 7.32
- pIC50: 4.31

SMILES: CC(NC(=O)C(CC(=O)OCc1ccccc1)NC(=O)OCc1ccccc1)c1ccccc1 (centres undefined)
- pEC50: < 3.70
- pIC50: < 3.70

SMILES: NC(N)=NS(=O)(=O)c1ccc(Nc2c3ccccc3nc3c(C(=O)NNCCO)cccc23)cc1
- pEC50: < 3.70
- pIC50: 5.28

SMILES: N#Cc1sc2c(c1OC(=O)c1ccco1)c(=O)n(-c1ccccc1)c(=S)n2-c1ccccc1
- pEC50: < 3.70
- pIC50: 4.91

SMILES: C(=C(c1ccccc1)c1ccccc1)N1CCOCC1
- pEC50: < 3.70
- pIC50: < 3.70

SMILES: COC1(OC)CC2C(=O)N(Cc3ccccc3)C1C(S(=O)(=O)c1ccccc1)C2S(=O)(=O)c1ccccc1 (centres undefined)
- outcome: inactive

SMILES: CC(C)(O)C(O)COc1c2c(cc3oc(=O)ccc13)OCO2 (centres undefined)
- pEC50: < 3.09
- pIC50: 3.47

SMILES: CCOC(CCNCC(OCC)OCC)OCC
- pEC50: < 3.70
- pIC50: < 3.70

SMILES: COC1(OC)C2C=CC1C([C@](C)(N)CO)C2 (some centres undefined)
- pEC50: < 2.96
- pIC50: < 2.96

SMILES: COc1c(N2CCCCC2)c2c(=O)c3ccccc3oc2c2cc(C)oc12
- pEC50: < 3.70
- pIC50: 4.95

SMILES: Cn1c(=O)c2c(n(C)c1=O)n1c(=O)c3ccccc3nc1n2C
- pEC50: < 3.70
- pIC50: < 3.70

SMILES: CC(=O)Nc1ccccc1-c1ccccc1NC(C)=O
- outcome: inactive

SMILES: CC(=O)Nc1cc2c(cc1[N+](=O)[O-])-c1ccccc1C2=O
- pEC50: < 3.70
- pIC50: < 3.70

SMILES: CCCCCCOP(=O)(OCCCCCC)C(NC(=O)OCC)(C(F)(F)F)C(F)(F)F
- pEC50: < 3.70
- pIC50: 4.66

SMILES: C=C1CC(C#N)(C#N)[C@H]2C3CCCC3C[C@@H]12 (some centres undefined) (tested in a mixture with another compound)
- pEC50: < 3.70
- pIC50: 4.48

SMILES: COc1ccc(-c2coc3cc(O)ccc3c2=O)cc1
- pEC50: < 3.70
- pIC50: < 4.00

SMILES: COc1ccc2c(c1)CCCN1Cc3cc(OC)c(OC)cc3CC21 (centres undefined)
- pEC50: < 3.70
- pIC50: 4.06

SMILES: CC(C)CC(NC(=O)C(CC(=O)O)NC(=O)C(CO)NC(=O)C(CCCCN)NC(=O)C1CCCN1C(=O)C(CC(C)C)NC(=O)C(CO)NC(=O)CNC(=O)C(N)CCC(=O)O)C(=O)NC(CCCN=C(N)N)C(=O)O (centres undefined) (H-EGSLPKSDLR-OH; configuration not given here)
- pEC50: < 4.25
- pIC50: < 4.25

SMILES: COC(=O)N1C2CCCCC2=NN(c2ccccc2)N1C(=O)OC (centres undefined)
- pEC50: < 3.69
- pIC50: < 3.69

SMILES: CC(=O)Nc1ccc(C(=O)NN2C(=O)C(Cl)C2c2cccc([N+](=O)[O-])c2)cc1 (centres undefined)
- pEC50: < 3.70
- pIC50: 4.07

SMILES: C=CC1(c2ccc3ccccc3c2)OCC(CC)O1 (centres undefined)
- pEC50: < 3.70
- pIC50: 4.06

SMILES: CCCCC(C)CCCC1=C(O)C(CC(=O)O)OC1=O (centres undefined)
- pEC50: < 4.06
- pIC50: < 4.06

SMILES: COc1ccc(N2C(=O)C3c4[nH]c5ccc(OC)cc5c4C4CCC(C(C)(C)C)CC4C3C2=O)cc1 (centres undefined)
- pEC50: < 4.83
- pIC50: < 4.83

SMILES: Brc1cccc[n+]1Cc1cccc(C[n+]2ccccc2Br)c1
- pEC50: 7.20
- pIC50: 3.85

Reference: PubChem BioAssay AID179 (DTP/NCI, 2004)
